Experimental data published in US10072020B1, “Isatin spiro compounds with antibacterial activities and a method of preparing the same” (SHAANXI UNIVERSITY OF SCIENCE AND TECHNOLOGY, priority 2018, dated 2018).
Values after ≈ are worked out from the molar mass of the structure shown.

Assays:
Experiment in all cases: Antibacterial activity test, MIC by agar dilution
Type in all cases: cell-based
[1] = tested on: Escherichia coli ATCC 25922; conditions: ATCC25922, MH agar plate two-fold dilution, 25° C. for 18-24 hours, read-out: Minimum Inhibitory Concentrations
Method: (§1) Antibacterial Activity Test of the Compounds of the Invention
(§2) The compounds were tested for their antibacterial activities using the following standard strains: Escherichia coli ATCC 25922, Escherichia coli 10-1, and Escherichia coli 10-2.
(§3) Preparation of Escherichia coli strains and bacterial liquid: the test strains (Escherichia coli ATCC 25922, Escherichia coli 10-1, and Escherichia coli 10-2) stock solutions were seeded in LB solid Media Petri dishes and placed in a 37° C. incubator overnight. The next day, single colonies were picked from LB solid petri dishes and inoculated into 6-10 mL LB liquid medium and cultured with shaking at 150 rpm for 3 hours at 37° C. 100 μL of the liquid was evenly coated on an LB solid plate, and inverted in an incubator at 37° C. overnight. Viable cells in the logarithmic growth phase were collected after 16-18 hours, and sterile water was added to form a bacteria suspension with the number of bacteria being 106 CFu·mL^−1.
(§4) Preparation of compound-containing agar plate: MH agar was heated to dissolve and placed in 45-50° C. water bath to balance, the compounds were added at different concentrations (160, 300, 600 μg·mL^−1). The mixtures were mixed evenly and poured onto sterilization plates, placed into a sealed plastic bag at 2-8° C.
(§5) Determination of the minimum inhibitory concentration: the minimum inhibitory concentrations (MICs) of the test compounds on the test bacteria were determined by diluting the agar plate two-fold. Multi-point inoculation instrument was used to inoculate bacteria to the MH agar medium that contains the compounds, forming a plaque with a diameter of 5 to 8 mm. After the plates were incubated at 25° C. for 18-24 hours, the growth state of the bacteria was observed, and the minimum compound concentration for inhibiting the growth of the bacteria was the MIC.

[2] = tested on: Escherichia coli 10-2; conditions: 102, MH agar plate two-fold dilution, 25° C. for 18-24 hours, read-out: Minimum Inhibitory Concentrations
Method: as §1, §2, §3, §4, §5

[3] = tested on: Escherichia coli 10-1; conditions: 101, MH agar plate two-fold dilution, 25° C. for 18-24 hours, read-out: Minimum Inhibitory Concentrations
Method: as §1, §2, §3, §4, §5

Compound | MIC [1] | MIC [2] | MIC [3]
CN1C(=O)[C@@]2(OC=C2C=O)c2cc(Br)ccc21 [Compound 1, (R)-5-bromo-1-methyl-2-oxospiro[indoline-3,2′-oxete]-3′-carbaldehyde] | 300 µg/mL (≈ 1020 µM) | 160 µg/mL (≈ 544 µM) | 160 µg/mL (≈ 544 µM)
CN1C(=O)[C@@]2(OC=C2C=O)c2cccc(Br)c21 [Compound 2, (R)-7-bromo-1-methyl-2-oxospiro[indoline-3,2′-oxete]-3′-carbaldehyde] | 300 µg/mL (≈ 1020 µM) | > 160 µg/mL | 160 µg/mL (≈ 544 µM)
CN1C(=O)[C@@]2(OC=C2C=O)c2cc(Cl)ccc21 [Compound 3, (R)-5-chloro-1-methyl-2-oxospiro[indoline-3,2′-oxete]-3′-carbaldehyde] | 300 µg/mL (≈ 1200 µM) | 300 µg/mL (≈ 1200 µM) | 160 µg/mL (≈ 641 µM)
CN1C(=O)[C@@]2(OC=C2C=O)c2cccc(Cl)c21 [Compound 4, (R)-7-chloro-1-methyl-2-oxospiro[indoline-3,2′-oxete]-3′-carbaldehyde] | > 600 µg/mL | 160 µg/mL (≈ 641 µM) | 300 µg/mL (≈ 1200 µM)
CCN1C(=O)[C@@]2(OC=C2C(=O)c2ccccc2)c2cc(Br)ccc21 [Compound 9, (R)-3′-benzoyl-5-bromo-1-ethylspiro[indoline-3,2′-oxet]-2-one] | 300 µg/mL (≈ 781 µM) | 160 µg/mL (≈ 416 µM) | 300 µg/mL (≈ 781 µM)
CCCN1C(=O)[C@@]2(OC=C2C(=O)c2ccccc2)c2cc(Cl)ccc21 [Compound 11, (R)-3′-benzoyl-5-chloro-1-propylspiro[indoline-3,2′-oxet]-2-one] | > 600 µg/mL | 160 µg/mL (≈ 452 µM) | 160 µg/mL (≈ 452 µM)
CCN1C(=O)[C@@]2(OC=C2C=O)c2cc(Br)ccc21 [Compound 13, (R)-5-bromo-1-ethyl-2-oxospiro[indoline-3,2′-oxete]-3′-carbaldehyde] | 160 µg/mL (≈ 519 µM) | 160 µg/mL (≈ 519 µM) | 300 µg/mL (≈ 974 µM)
O=C1Nc2ccccc2C1=O [isatin] | > 600 µg/mL | 160 µg/mL (≈ 1090 µM) | 300 µg/mL (≈ 2040 µM)

Next, values leading:

MIC [1] | MIC [2] | MIC [3] | Compound
160 µg/mL (≈ 359 µM) | 300 µg/mL (≈ 672 µM) | 300 µg/mL (≈ 672 µM) | CN1C(=O)[C@@]2(OC(c3ccccc3)=C2C(=O)c2ccccc2)c2cc(Br)ccc21 [Compound 5, (R)-3′-benzoyl-5-bromo-1-methyl-4′-phenylspiro[indoline-3,2′-oxet]-2-one]
300 µg/mL (≈ 672 µM) | 300 µg/mL (≈ 672 µM) | > 600 µg/mL | CN1C(=O)[C@@]2(OC(c3ccccc3)=C2C(=O)c2ccccc2)c2cccc(Br)c21 [Compound 6, (R)-3′-benzoyl-7-bromo-1-methyl-4′-phenylspiro[indoline-3,2′-oxet]-2-one]
300 µg/mL (≈ 747 µM) | 300 µg/mL (≈ 747 µM) | 160 µg/mL (≈ 398 µM) | CN1C(=O)[C@@]2(OC(c3ccccc3)=C2C(=O)c2ccccc2)c2cc(Cl)ccc21 [Compound 7, (R)-3′-benzoyl-5-chloro-1-methyl-4′-phenylspiro[indoline-3,2′-oxet]-2-one]
160 µg/mL (≈ 398 µM) | 300 µg/mL (≈ 747 µM) | 300 µg/mL (≈ 747 µM) | CN1C(=O)[C@@]2(OC(c3ccccc3)=C2C(=O)c2ccccc2)c2cccc(Cl)c21 [Compound 8, (R)-3′-benzoyl-7-chloro-1-methyl-4′-phenylspiro[indoline-3,2′-oxet]-2-one]
300 µg/mL (≈ 753 µM) | > 600 µg/mL | 160 µg/mL (≈ 402 µM) | CCCN1C(=O)[C@@]2(OC(c3ccccc3)=C2C=O)c2cccc(Br)c21 [Compound 10, (R)-7-bromo-2-oxo-4′-phenyl-1-propylspiro[indoline-3,2′-oxete]-3′-carbaldehyde]
300 µg/mL (≈ 883 µM) | 300 µg/mL (≈ 883 µM) | 160 µg/mL (≈ 471 µM) | CCN1C(=O)[C@@]2(OC(c3ccccc3)=C2C=O)c2cccc(Cl)c21 [Compound 12, (R)-7-chloro-1-ethyl-2-oxo-4′-phenylspiro[indoline-3,2′-oxete]-3′-carbaldehyde]
300 µg/mL (≈ 921 µM) | 160 µg/mL (≈ 491 µM) | 160 µg/mL (≈ 491 µM) | O=CC1=CO[C@@]12C(=O)N(Cc1ccccc1)c1c(Cl)cccc12 [Compound 14]
160 µg/mL (≈ 306 µM) | 300 µg/mL (≈ 574 µM) | 160 µg/mL (≈ 306 µM) | O=C(C1=C(c2ccccc2)O[C@@]12C(=O)N(Cc1ccccc1)c1c(Br)cccc12)c1ccccc1 [Compound 15]
160 µg/mL (≈ 372 µM) | 160 µg/mL (≈ 372 µM) | 300 µg/mL (≈ 698 µM) | CCCN1C(=O)[C@@]2(OC(c3ccccc3)=C2C(=O)c2ccccc2)c2cc(Cl)ccc21 [Compound 16, (R)-3′-benzoyl-5-chloro-4′-phenyl-1-propylspiro[indoline-3,2′-oxet]-2-one]
